Reference: patent publication US12576084B2, “Methods for treating testicular and ovarian adrenal rest tumors” (Spruce Biosciences, Inc., priority 2018, dated 2026)

Experiments:
[1] = Phase 2 study in classic CAH: pharmacokinetics; format: in vivo, human; details: 200 to 1000 mg QD, patients with CAH
Text: FIG. 2. Graphic representation of pharmacokinetics (dose-proportional, adequate exposure at safe doses) in patients with CAH following 14-days of once daily dosing at each dose level with a CRF1 antagonist (Compound 1).
FIG. 3. Graphic representation of pharmacokinetics (dose-proportional, adequate exposure at safe doses) in patients with CAH following 14-days of once daily dosing at each dose level with a CRF1 antagonist (Compound 1).
(§1) An ongoing Phase 2 open-label study (Study Compound 2) is currently evaluating the safety and efficacy of Compound 1 dosed once daily for 6 weeks in adults with classic CAH. In the initial Cohort A of this study, all subjects are dosed starting at 200 mg/day for 14 days, escalating for each subject to 600 mg/day for 14 days, then 1000 mg/day for 14 days if the subject experiences no DLTs at the previous dose level. (FIGS. 2-3).
(§2) The objectives of the study are: to assess the ability of Compound 1 to reduce excess ACTH and adrenal steroid production in participants with classic CAH on a stable gluococorticoid regimen; to evaluate the safety and tolerability of tildacerfont in participants with classic CAH; and to evaluate the pharmacokinetics (PK) of tildacerfont.

male rats = assay: Fertility toxicology study in male rats; format: in vivo, rat
Protocol: Additionally, a fertility toxicology study was conducted in rats. In this study, male rats were administered oral Compound 1 once daily at 0, 5, 20, or 1000 mg/kg for 85 to 87 days (70 days before mating, during mating, and ≤4 days between mating and necropsy). Male reproductive performance (mean day of mating, mating and fertility indices, and conception rates) was unaffected by Compound 1 treatment.

beagle dogs = assay: Repeat-dose oral toxicology study, 91 days, beagle dogs; format: in vivo, dog
Text: (§3) The nonclinical safety profile of Compound 1 has been evaluated in repeat-dose range-finding and definitive toxicology studies of up to 91 days in duration in rats and dogs using the clinically relevant route (oral) and schedule of administration (once daily).

[2] = system: testicular adrenal rest tumors (TART); assay: TART size pre-treatment vs 6 weeks post-treatment in a patient with classic CAH; format: in vivo, human; details: person with classic CAH, 6 weeks treatment
Text: FIG. 10A-10B. Images of a patient with TART pre-treatment with a CRF1 antagonist (Compound 1) (A) and 6-weeks post-treatment with a CRF1 antagonist (Compound 1) (B).
FIGS. 10A-10B show approximately 25% shrinkage in TART in a person with classic congenital adrenal hyperplasia following 6 weeks treatment with a CRF1 receptor antagonist.

[3] = system: ACTH, 17OHP and androstenedione (A4) in participants with classic CAH; assay: Phase 2 open-label study in adults with classic CAH: change in ACTH, 17OHP and A4; format: in vivo, human
Protocol: as §1
30% of subjects were in the normal range (*) after treatment with a CRF1 receptor antagonist.
50% of subjects were in the guideline range (*; 1200 ng/dL) after treatment with a CRF1 receptor antagonist.
50% of subjects were within the normal reference range after treatment with a CRF1 receptor antagonist.
as §2
• Adult males and females 18 years or older • Diagnosis of classic CAH due to 21-hydroxylase deficiency • Morning 17OHP≥800 ng/dL, before taking any morning GC dose • On a stable regimen of gluococorticoid replacement for ≥30 days before enrollment Exclusion Criteria: • Clinically significant unstable medical condition, illness, or chronic disease within 30 days of screening • Clinically significant psychiatric disorder • History of bilateral adrenalectomy or hypopituitarism Study Design
FIG. 14 depicts the proof of concept and escalating QD dosing at 10 PM for Cohort A and the single dose level and BID dosing at 10 AM and 10 pm for Cohort B.
(§4) One participant withdrew early because of an occupation-related scheduling conflict. In Cohort B, 9 participants were enrolled and received at least one dose of Compound 1. […] Thus, baseline characteristics are calculated for n=8 in Cohort B. One participant in Cohort B was taking both HC and prednisone.

[4] = Nonclinical studies: liver function tests; format: in vivo; details: significantly higher doses
Text: However, these events were not observed in the Phase 1 clinical studies. Clinical laboratory measures of liver chemistry will be assessed throughout this study, and strict individual treatment stopping criteria for liver chemistry findings are in place.

healthy volunteers = assay: Phase 1 studies in healthy volunteers: safety and tolerability; format: in vivo
Text: Clinical laboratory measures of testicular function (LH, FSH, inhibin B, and SHBG) will be assessed throughout this study to monitor the risk of testicular injury. Testicular ultrasounds and semen analysis will also be performed at screening/baseline and the end of the treatment period.
Clinical laboratory measures of liver chemistry will be assessed throughout this study, and strict individual treatment stopping criteria for liver chemistry findings are in place.

CRF1 receptor [5] = molecular target: T1, CRF1 receptor (Homo sapiens, UniProt P34998); assay: Inhibition of adenylate cyclase activity (CRF1 receptor-mediated downstream cascade); format: biochemical; details: in vitro
T1 sequence (P34998 24-415): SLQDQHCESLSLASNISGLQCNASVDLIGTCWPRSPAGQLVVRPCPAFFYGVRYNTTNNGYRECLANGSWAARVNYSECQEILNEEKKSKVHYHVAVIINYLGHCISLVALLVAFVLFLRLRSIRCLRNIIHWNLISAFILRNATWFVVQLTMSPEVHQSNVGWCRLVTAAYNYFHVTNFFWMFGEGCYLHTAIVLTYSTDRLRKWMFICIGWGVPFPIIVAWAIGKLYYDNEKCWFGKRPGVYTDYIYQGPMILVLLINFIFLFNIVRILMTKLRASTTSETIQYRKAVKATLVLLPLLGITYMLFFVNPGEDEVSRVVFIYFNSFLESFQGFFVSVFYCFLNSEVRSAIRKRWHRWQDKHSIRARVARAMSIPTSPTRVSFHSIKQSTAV

[6] = system: participants with classic CAH; assay: Phase 2 study in classic CAH: safety and tolerability; format: in vivo, human; details: across both cohorts
Protocol: as §1, §2, §4

rats = assay: Repeat-dose oral toxicology study, 91 days, rats; format: in vivo, rat
Text: as §3

[7] = Phase 1 studies in healthy volunteers: pharmacokinetics; format: in vivo
Protocol: The specification of study drug dosing at 10 pm and after consumption of a snack is based on information from the Phase 1 studies in healthy volunteers. The plasma Cmax (maximum concentration) for Compound 1 in the Phase 1 studies occurred approximately 5 hours after dosing. Therefore, Compound 1 will be dosed daily at 10 pm in this study in order to achieve peak plasma study drug concentration at the time of day when most adrenal androgens are produced. […] Specific dose reduction criteria, strict individual treatment stopping criteria, and appropriate laboratory and medical assessments have been established to ensure subject safety. (FIGS. 1A-1B).
To date, a total of 53 subjects, all healthy adults aged 21 to 65 years, have been treated with at least 1 dose of Compound 1 in 2 Phase 1 studies. The first-in-human study of Compound 1 (Study I3C-FW-BLAA) evaluated single ascending doses of 2 mg to 800 mg. […] A subsequent study (Study I3C-FW-BLAB) evaluated repeat doses of 50 mg, 100 mg, or 200 mg Compound 1 once daily for 14 consecutive days.

[8] = system: CRF-induced locomotor behavior; assay: CRF-induced locomotor behavior after i.c.v. administration of CRF; format: in vivo; details: oral, 10 mg/kg
Protocol: (§5) FIG. 11A-11B. Graphic representation of an […] binding assay of a CRF1 antagonist (Compound 1); ^125I-sauvagine binding to rat cerebellar membranes one hour after oral administration of increasing Compound 1 doses (A) and in vivo inhibition of CRF-induced activity after treatment with a CRF1 antagonist; Compound 1 (oral, 10 mg/kg) (B).

CRF1 receptor [9] = molecular target: T1, CRF1 receptor; assay: In vitro and ex vivo CRF1 receptor binding studies
Protocol: as §5

[10] = CAH subjects, FIGS. 4 and 5A-5B
[11] = CAH subjects, FIGS. 6 and 7A-7B
[12] = CAH subjects, FIGS. 8 and 9A-9B
[13] = Cohort A (200, 600, 1000 mg QD)
[14] = healthy human subjects, Phase 1

For CCC(CC)c1cc(C)nc2c(-c3sc(N4CCOCC4)nc3Cl)c(C)nn12 [Compound 1, tildacerfont], the PK profile [1] was “predictable, dose-dependent PK profile”, the “male reproductive performance (mean day of mating, mating and fertility indices, conception rates)” value (male rats; male rats, oral once daily 5, 20 or 1000 mg/kg for 85 to 87 days) was “unaffected” and the impairment in fertility (male rats; male reproductive studies in rodents, highest dose tested 1,000 mg/kg/day) was “no impairment in fertility”. For the same compound, the “ovarian and uterine effects in untreated females mated with treated males” value (male rats; rats) was “no ovarian and uterine effects”, the reversibility of findings (beagle dogs; beagle dogs, 6-week treatment-free recovery period) was “reversible” and the toxicologic findings (beagle dogs; beagle dogs, oral once daily, 91 days, up to 2000 mg/kg/day) was “all mild and limited to the male reproductive tract”. For the same compound, the “effects on the thyroid gland” value (beagle dogs; dogs, 91 days, high-dose 2,000 mg/kg/day) was “effects on the thyroid gland were noted”, the testicular effects (beagle dogs; dogs, high-dose 2,000 mg/kg/day) was “reversible testicular effects (degeneration/atrophy)” and the “shrinkage in TART” value [2] was “approximately 25%”. The “subjects in the normal range for ACTH after treatment” value [3, 10] was 30 % of subjects, the “subjects who demonstrated >25% reduction in ACTH” value [3, 10] was 70 % of subjects and the “subjects who demonstrated reduction in ACTH” value [3, 10] was 80 % of subjects. The “subjects in the guideline range (1200 ng/dL) for 17-OHP after treatment” value [3, 11] was 50 % of subjects, the “subjects who demonstrated >25% reduction in ACTH (printed in the 17-OHP paragraph)” value [3, 11] was 50 % of subjects and the “subjects who demonstrated reduction in 17-OHP” value [3, 11] was 80 % of subjects. For the same compound, the “subjects who demonstrated >25% reduction in androstenedione” value [3, 12] was 60 % of subjects, the “subjects within the normal reference range for androstenedione after treatment” value [3, 12] was 50 % of subjects and the “subjects who demonstrated reduction in androstenedione” value ([3]; CAH subjects, at various doses, FIGS. 8 and 9A-9B) was 100 % of subjects. For the same compound, the “participants whose levels of 17OHP improved at ≥1 dose level” value [3, 13] was 8 out of 10, the “participants whose levels of A4 improved at ≥1 dose level” value [3, 13] was 10 out of 10 and the “participants whose levels of ACTH improved at ≥1 dose level” value [3, 13] was 8 out of 10. The “Percentage change from baseline in 17OHP” value ([3]; Cohort A, 200 mg QD (Week 2)) was “+22.2 (±172.3) %”, the “Percentage change from baseline in A4” value ([3]; Cohort A, 200 mg QD (Week 2)) was −12.1 (±47.4) % and the “Percentage change from baseline in ACTH” value ([3]; Cohort A, 200 mg QD (Week 2)) was −25.7 (±51.6) %. For the same compound, the “Percentage change from baseline in 17OHP” value ([3]; Cohort A, 600 mg QD (Week 4)) was −23.7 (±64.2) %, the “Percentage change from baseline in A4” value ([3]; Cohort A, 600 mg QD (Week 4)) was −33.2 (±36.5) % and the “Percentage change from baseline in ACTH” value ([3]; Cohort A, 600 mg QD (Week 4)) was −60.1 (±37.5) %. The “Percentage change from baseline in 17OHP” value ([3]; Cohort A, 1000 mg QD (Week 6)) was −13.8 (±74.7) %, the “Percentage change from baseline in A4” value ([3]; Cohort A, 1000 mg QD (Week 6)) was −28.6 (±44.6) % and the “Percentage change from baseline in ACTH” value ([3]; Cohort A, 1000 mg QD (Week 6)) was −32.7 (±47.0) %. For the same compound, the “participants whose levels of 17OHP improved at ≥1 dose level” value ([3]; Cohort B (200 mg BID)) was 6 out of 7, the “participants whose levels of A4 improved at ≥1 dose level” value ([3]; Cohort B (200 mg BID)) was 6 out of 8 and the “participants whose levels of ACTH improved at ≥1 dose level” value ([3]; Cohort B (200 mg BID)) was 5 out of 7. For the same compound, the “Percentage change from baseline in 17OHP” value ([3]; Cohort B, 200 mg BID (Weed 2)) was −47.8 (±63.3) %, the “Percentage change from baseline in A4” value ([3]; Cohort B, 200 mg BID (Weed 2)) was −16.0 (±81.4) % and the “Percentage change from baseline in ACTH” value ([3]; Cohort B, 200 mg BID (Weed 2)) was −36.5 (±58.0) %. The “laboratory abnormalities in liver function tests (LFTs)” value [4] was “have been observed at significantly higher doses”, the “laboratory abnormalities in liver function tests (LFTs)” value (healthy volunteers; Phase 1 clinical studies) was “not observed” and the “alterations in safety laboratory values, vital signs, or electrocardiograms (ECGs)” value (healthy volunteers; Phase 1 studies) was “no clinically significant alterations”. For the same compound, the “adverse events, single ascending doses” value (healthy volunteers; Study I3C-FW-BLAA, 2 mg to 800 mg, small number of subjects) was “diarrhea and headache of mild or moderate severity”, the “adverse events, repeat doses” value (healthy volunteers; Study I3C-FW-BLAB, 50, 100 or 200 mg once daily for 14 days, small number of subjects) was “dyspnea, rhinorrhea, palpitations, and headache” and the “SAEs, AEs leading to discontinuation, dose-limiting toxicities” value (healthy volunteers; [14]) was “no SAEs, AEs leading to discontinuation, or dose-limiting toxicities (DLTs)”. For the same compound, the tolerability (healthy volunteers; [14]) was “well tolerated”, the “effects on clinical laboratory markers of testicular function (LH and FSH)” value (healthy volunteers; healthy male volunteers, up to 200 mg per day for 14 consecutive days) was “no effects” and the maximum tolerated dose (healthy volunteers; humans) was “has not been reached”. The “inhibition of adenylate cyclase activity” value (CRF1 receptor [5]) was “functional potency to inhibit adenylate cyclase activity”, the “most common type of adverse event (AE)” value [6] was “gastrointestinal disorders” and the “serious AEs and AEs leading to withdrawal” value [6] was “no serious AEs and no AEs leading to withdrawal”. The tolerability [6] was “generally well tolerated”, the reversibility of findings (rats; 6-week treatment-free recovery period) was “reversible” and the testicular effects (rats; high-dose 2,000 mg/kg/day) was “reversible testicular effects (degeneration/atrophy)”. For the same compound, the toxicologic findings (rats; oral once daily, 91 days, up to 2000 mg/kg/day) was “all mild and limited to the male reproductive tract”, the “study drug absorption in a fasted state” value [7] was “minimal study drug absorption” and the “inhibition of CRF-induced locomotor behavior” value [8] was “significantly inhibit”. For the same compound, the “affinity and selectivity for the hCRF1 receptor” value (CRF1 receptor [9]) was “high affinity and selective for the hCRF1 receptor”.
